“Also recorded” adds a separate entry of the source.
What was measured:
[1] = system: asexual-stage P. falciparum; experiment: Antimalarial activity on the asexual stage of P. falciparum (parasitemia in infected red blood cells); format: cell-based, Plasmodium falciparum
Experimental: 3-5-day cultured P. falciparum-infected red blood cells (iRBCs) were mixed with fresh human RBCs (AB+ type) in complete RPMI 1640 to prepare cultures with 0.5% parasitemia and 2% hematocrit. AST was dissolved in DMSO. […] The plate was incubated in a candle jar at 37° C. Approximately 48 h later, the medium was replaced with fresh medium containing the same concentration of AST. Parasitemia was recorded on day 4 post-incubation.

[2] = system: macrophage-like cells differentiated from THP-1
[3] = system: human cell lines (HEK293, THP-1, macrophage, HepG2, Caco-2)
[4] = target: T1, human GS-II (hGS-II) (Homo sapiens, UniProt P15104); experiment: Glutamine synthetase assay (Glutamine/Glutamate-GLO), human GS-II; format: biochemical; conditions: 1 μM AST, 1 μM hGS-II, 30 min
T1 construct: purchased BioVision Inc
Experimental: (§1) The activity and inhibition profiles of purified MBP-fused PfGS-I or human GS-II (hGS-II) (BioVision Inc., Milpitas, CA, USA) in the presence or absence of AST were estimated from glutamine production using Glutamine/Glutamate-GLO™ Assay Kit (Promega, Madison, WI). The assay mixture (50 mM imidazole-HCl buffer (pH 7.0), 7.6 mM ATP, 50 mM magnesium chloride, 50 mM ammonium chloride) with or without the indicated concentration of GS enzyme was preincubated in the presence or absence of the indicated concentrations of AST for 15 min at room temperature. The reaction was initiated by addition of L-glutamate at 0.1 mM, final concentration. The reaction mixtures were incubated at 37° C. with shaking at 300 rpm for indicated time. The reactions were terminated by chilling the reaction mixture in ice water and filtered with 30 kDa Amicon Ultra centrifugal filters at 4° C. Glutamate concentrations in the filtered samples were determined using Glutamine/Glutamate-GLO™ Assay as instructed in the kit's manual, from which glutamine concentrations were estimated by subtracting the glutamate concentrations from the initial concentrations (0.1 mM). The half maximal effective concentration (EC50) of AST for PfGS-I was calculated using Sigma Plot (Systat Software, Inc., Sun Jose, CA).

[5] = system: THP-1 cells
[6] = system: human cell lines (HEK293, THP-1, macrophage, HepG2, Caco-2); experiment: Stability in culture media and human cell lysates (arsenic speciation by HPLC-ICP-MS); conditions: 100 μM AST, 48 h, five human cell lines
[7] = system: HEK293 cells
[8] = system: human cell lines (HEK293, THP-1, macrophage, HepG2, Caco-2); experiment: MTT cytotoxicity assay, five human cell lines overall
[9] = system: Anopheles gambiae mosquitoes; experiment: Mosquito mortality observed in SMFA (insecticidal activity); format: in vivo; conditions: 0.1 to 3 μM in blood meal
Experimental: (§2) P. falciparum (NF54) was cultured in the complete RPMI-1640 containing 4% new O+ human red blood cells, 10% human AB+ serum, and 12.5 μg/ml of hypoxanthine in a candle jar at 37° C. Standard membrane feeding assays (SMFA) were used to examine the efficacy of AST. In brief, 10 ml of day-15 cultured P. falciparum containing ˜2% stage V gametocytes in a 15 ml centrifuge tube was centrifuged at 650×g for 5 min at RT. After the supernatant was removed, the cells were re-suspended in 1 ml of pre-warmed human AB− serum (37° C.), to which 1 ml of O+ hematocrit was added. 300 μl of the resulting infected blood were mixed with 2 μl of AST at different concentrations, yielding a final concentration of 0, 0.1, 0.3, 1, or 3 μM, which was fed a hundred 3-5-day-old female mosquitoes for 30 minutes. The unfed mosquitoes were removed, and the engorged mosquitoes were maintained with 10% sugar in the insectary. Seven days post-infection, the midguts were dissected and stained with 0.1% mercury dibromofluorescein salt in PBS for 30 minutes. The number of oocysts was counted under a 10× light microscope.

[10] = target: T2, PfGS-I (P. falciparum glutamine synthetase, MBP-fused) (Plasmodium falciparum, UniProt W7JM41); experiment: Glutamine synthetase assay (Glutamine/Glutamate-GLO), PfGS-I; format: biochemical
T2 sequence (W7JM41 1-544): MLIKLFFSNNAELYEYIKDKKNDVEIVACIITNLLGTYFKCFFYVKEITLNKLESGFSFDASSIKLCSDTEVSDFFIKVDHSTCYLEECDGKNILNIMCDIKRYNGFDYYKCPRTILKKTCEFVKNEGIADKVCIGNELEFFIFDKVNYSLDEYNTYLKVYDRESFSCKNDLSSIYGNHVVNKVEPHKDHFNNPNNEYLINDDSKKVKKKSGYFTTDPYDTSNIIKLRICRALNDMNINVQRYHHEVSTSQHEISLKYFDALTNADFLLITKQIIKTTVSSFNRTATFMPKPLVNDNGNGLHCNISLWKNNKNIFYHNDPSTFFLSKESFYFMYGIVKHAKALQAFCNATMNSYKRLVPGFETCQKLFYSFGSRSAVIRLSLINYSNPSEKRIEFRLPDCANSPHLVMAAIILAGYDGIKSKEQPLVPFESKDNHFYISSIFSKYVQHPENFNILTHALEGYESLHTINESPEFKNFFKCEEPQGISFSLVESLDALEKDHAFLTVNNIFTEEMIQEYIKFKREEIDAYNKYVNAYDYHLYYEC
Experimental: as §1

[11] = system: HepG2 cells
[12] = system: Caco-2 cells
[13] = system: sexual-stage P. falciparum transmission to Anopheles gambiae; experiment: Transmission-blocking standard membrane feeding assay (SMFA), oocysts in An. gambiae midguts; format: in vivo, Plasmodium falciparum
Experimental: as §2, with “300 μl of the resulting infected blood were mixed with 2 μl of AST at different concentrations, yielding a final concentration of 0, 0.1, 0.3, 1, or 3 μM, which was fed a hundred 3-5-day-old female mosquitoes for 30 minutes.” left out

T1 sequence (P15104 whole entry): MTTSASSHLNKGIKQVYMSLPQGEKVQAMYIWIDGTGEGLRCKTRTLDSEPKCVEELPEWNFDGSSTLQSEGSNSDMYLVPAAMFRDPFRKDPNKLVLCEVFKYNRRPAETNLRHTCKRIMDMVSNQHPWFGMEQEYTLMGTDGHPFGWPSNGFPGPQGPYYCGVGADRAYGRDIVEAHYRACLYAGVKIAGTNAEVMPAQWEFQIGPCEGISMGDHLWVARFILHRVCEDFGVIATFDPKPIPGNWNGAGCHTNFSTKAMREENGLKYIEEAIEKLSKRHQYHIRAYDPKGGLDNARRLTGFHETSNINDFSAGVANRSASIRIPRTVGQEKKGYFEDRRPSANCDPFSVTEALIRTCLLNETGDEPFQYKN

Structure (SMILES): C[As](=O)(O)CC[C@H](N)C(=O)O [AST, 2-amino-4-(hydroxymethylarsinoyl)butanoate]
- inhibition of P. falciparum proliferation in blood ([1]; AST at 100 μM): completely inhibits
- EC50 ([1]; infected human blood, 0.5% parasitemia, 2% hematocrit, day 4, read-out: EC50 in inhibiting asexual-stage P. falciparum (50% of parasitemia rate vs AST-free control)): 13.9 µM
- CC50 [2]: > 250 µM
- permeability (total arsenic levels in cells) [3]: permeable to cytomembrane
- permeability to HepG2 cells [3]: moderately permeable
- effect on hGS-II activity [4]: did not significantly reduce; also recorded: little effect
- CC50 [5]: > 250 µM
- arsenic species in culture media and cell lysates (stability) [6]: almost exclusively AST
- CC50 [7]: > 250 µM
- effect on viability of the tested human cell lines ([8]; AST at 100 μM, most of the tested cell lines): little effect
- times less cytotoxic than As(III) ([8]; ratio of LC50 values, human cell lines): > 10 times
- dead mosquitoes (insecticidal activity) [9]: no dead mosquitoes were observed
- EC50 ([10]; 0.5 μM PfGS-I, 2 hours, read-out: EC50 for PfGS-I inhibition): 0.4 µM
- reduction of PfGS-I activity ([10]; 1 μM AST): more than 60%
- activity of PfGS-I compared with the control without AST treatment ([10]; 1 μM AST, 1 μM PfGS-I, 30 min): less than 40%
- inhibition of PfGS-I activity ([10]; AST at 100 μM): completely inhibits
- CC50 [11]: > 250 µM
- CC50 [12]: 150 to 200 µM
- inhibition of P. falciparum transmission to An. gambiae compared to PT and MSO ([13]; 3 μM, SMFA, oocysts day 7): significantly inhibits
- inhibition of malaria transmission ([13]; 3 μM, SMFA, oocysts day 7): completely inhibited
- inhibition of transmission to mosquitoes ([13]; AST at 100 μM): completely inhibits
- EC50 ([13]; SMFA, An. gambiae, oocysts day 7 post-infection, read-out: EC50 in blocking transmission of sexual-stage P. falciparum to mosquitos (50% of oocysts per mosquito vs control)): 0.34 µM

From patent US11877996B1 (priority 2023, dated 2024)
